In PubChem BioAssay AID1259407 (Chemical Carcinogenesis Research Information System (CCRIS), 2018):
Active and inactive are the calls of the source. No rule for the calls is given here.

Tested on: CCRIS mutagenicity, Ames/micronucleus/aberration tests
Test: CCRIS mutagenicity studies
[1] = Test System: AMES SALMONELLA TYPHIMURIUM, Strain/Indicator: TA98, Metabolic Activation: NONE, Method: STANDARD PLATE
[2] = Test System: AMES SALMONELLA TYPHIMURIUM, Strain/Indicator: TA100, Metabolic Activation: NONE, Method: STANDARD PLATE

Measured: mutagenic call

O=C(O)c1ccc(O)cc1
inactive: Test System: AMES SALMONELLA TYPHIMURIUM, Strain/Indicator: TA98, Metabolic Activation: NONE, Method: PREINCUBATION inactive; negative | [1] inactive; negative | Test System: AMES SALMONELLA TYPHIMURIUM, Strain/Indicator: TA98, Metabolic Activation: RAT LIVER S-9, PHENOBARBITAL AND BETA-NAPHTHOFLAVONE, Method: PREINCUBATION inactive; negative | Test System: AMES SALMONELLA TYPHIMURIUM, Strain/Indicator: TA100, Metabolic Activation: NONE, Method: PREINCUBATION inactive; negative | [2] inactive; negative | Test System: AMES SALMONELLA TYPHIMURIUM, Strain/Indicator: TA100, Metabolic Activation: RAT LIVER S-9, PHENOBARBITAL AND BETA-NAPHTHOFLAVONE, Method: PREINCUBATION inactive; negative | Test System: AMES SALMONELLA TYPHIMURIUM, Strain/Indicator: TA102, Metabolic Activation: NONE, Method: PREINCUBATION inactive; negative | Test System: AMES SALMONELLA TYPHIMURIUM, Strain/Indicator: TA102, Metabolic Activation: RAT LIVER S-9, PHENOBARBITAL AND BETA-NAPHTHOFLAVONE, Method: PREINCUBATION inactive; negative | Test System: AMES SALMONELLA TYPHIMURIUM, Strain/Indicator: TA104, Metabolic Activation: NONE, Method: PREINCUBATION inactive; negative | Test System: AMES SALMONELLA TYPHIMURIUM, Strain/Indicator: TA104, Metabolic Activation: RAT LIVER S-9, PHENOBARBITAL AND BETA-NAPHTHOFLAVONE, Method: PREINCUBATION inactive; negative | Test System: AMES SALMONELLA TYPHIMURIUM, Strain/Indicator: TA1535, Metabolic Activation: NONE, Method: PREINCUBATION inactive; negative | Test System: AMES SALMONELLA TYPHIMURIUM, Strain/Indicator: TA1535, Metabolic Activation: RAT LIVER S-9, PHENOBARBITAL AND BETA-NAPHTHOFLAVONE, Method: PREINCUBATION inactive; negative | Test System: AMES SALMONELLA TYPHIMURIUM, Strain/Indicator: TA1537, Metabolic Activation: NONE, Method: PREINCUBATION inactive; negative | Test System: AMES SALMONELLA TYPHIMURIUM, Strain/Indicator: TA1537, Metabolic Activation: RAT LIVER S-9, PHENOBARBITAL AND BETA-NAPHTHOFLAVONE, Method: PREINCUBATION inactive; negative | Test System: E. COLI, Strain/Indicator: CM561 LEXA, Metabolic Activation: NONE, Method: STANDARD PLATE inactive; negative | Test System: E. COLI, Strain/Indicator: CM611 UVRA/LEXA, Metabolic Activation: NONE, Method: STANDARD PLATE inactive; negative | Test System: E. COLI, Strain/Indicator: WP2 UVRA, Metabolic Activation: NONE, Method: STANDARD PLATE inactive; negative | Test System: E.COLI, Strain/Indicator: WP2UVRA/PKM101, Metabolic Activation: NONE, Method: PREINCUBATION inactive; negative | Test System: E.COLI, Strain/Indicator: WP2UVRA/PKM101, Metabolic Activation: RAT LIVER S-9, PHENOBARBITAL AND BETA-NAPHTHOFLAVONE, Method: PREINCUBATION inactive; negative | Test System: E.COLI, Strain/Indicator: WP2UVRA, Metabolic Activation: NONE, Method: PREINCUBATION inactive; negative | Test System: E.COLI, Strain/Indicator: WP2UVRA, Metabolic Activation: RAT LIVER S-9, PHENOBARBITAL AND BETA-NAPHTHOFLAVONE, Method: PREINCUBATION inactive; negative

CN(C)CC/C=C1\c2ccccc2COc2ccccc21
inactive: [1] inactive; negative | Test System: AMES SALMONELLA TYPHIMURIUM, Strain/Indicator: TA98, Metabolic Activation: RAT, LIVER, S-9, AROCLOR 1254, Method: STANDARD PLATE inactive; negative | [2] inactive; negative | Test System: AMES SALMONELLA TYPHIMURIUM, Strain/Indicator: TA100, Metabolic Activation: RAT, LIVER, S-9, AROCLOR 1254, Method: STANDARD PLATE inactive; negative | Test System: AMES SALMONELLA TYPHIMURIUM, Strain/Indicator: TA1535, Metabolic Activation: NONE, Method: STANDARD PLATE inactive; negative | Test System: AMES SALMONELLA TYPHIMURIUM, Strain/Indicator: TA1535, Metabolic Activation: RAT, LIVER, S-9, AROCLOR 1254, Method: STANDARD PLATE inactive; negative | Test System: AMES SALMONELLA TYPHIMURIUM, Strain/Indicator: TA1537, Metabolic Activation: NONE, Method: STANDARD PLATE inactive; negative | Test System: AMES SALMONELLA TYPHIMURIUM, Strain/Indicator: TA1537, Metabolic Activation: RAT, LIVER, S-9, AROCLOR 1254, Method: STANDARD PLATE inactive; negative
